Measurements as given in US7595158B2, “Bcl2L12 polypeptide activators and inhibitors” (Dana-Farber Cancer Institute, Inc., priority 2003, dated 2009).

Assays:
Type in all cases: cell-based, human
Bcl2L12 polypeptide = assay: Endogenous Bcl2L12 polypeptide expression in U87MG cells (Western blot, immunofluorescence); details: 48 hours post transfection, anti-L12-1 Western blot
Method: Down-regulation of Bcl2L12 polypeptide expression via RNA interference was assessed in U87MG cells. Briefly, U87MG cells were co-transfected (1:10 ratio) with 0.5 μg of vector encoding GFP and 5 μg of either pSHAG-Control, pSHAG-Bcl2L12-A, pSHAG-Bcl2L12-B, or pSHAG-Bcl2L12-A+-B. Once transfected, the cells expressing GFP were sorted out by FACS analysis. […] The FACS-sorted cells were assessed for Bcl2L12 polypeptide expression. […] The FACS-sorted cells also were seeded in 24-well plates at a density of 1×10^5 cells, grown in 10% FBS-DMEM, and counted every day for three days.
In another experiment, total cellular lysates of U87MG cells transfected with control siRNA, Bcl2L12-targeting siRNA #4, or Bcl2L12-targeting siRNA #5 were harvested 48 hours post transfection and subjected to western blot analysis using the anti-L12-1 antibody (1 μg/mL).
The following experiments were performed to characterize the anti-Bcl2L12 polypeptide antibodies. U87MG cells stably expressing control or Bcl2L12-targeting shRNA (shL12-1) were subjected to deconvolution immunofluorescence microscopy using the anti-L12-2 antiserum. Cells were counterstained with DAPI. […]
The potential anti-oncogenic impact of Bcl2L12 polypeptide knockdown was assessed in the U87MG human glioma model system. […] Bcl2L12 polypeptide expression was analyzed by western blotting using the anti-L12-1 antibody. […]

LN443 cells = assay: STS-induced DNA fragmentation (sub-G1, FACS) in LN443 cells; details: LN443, 2.0 μM STS; control siRNA about 40 percent
Method: (§1) LNZ308 and LN443 glioma cell lines transfected with control siRNA, Bcl2L12-targeting siRNA #4, or Bcl2L12-targeting siRNA #5 were treated with 0, 0.2, 0.5, 1.0, or 2.0 μM STS. DNA-fragmentation was assessed by quantifying sub-G1 peaks using FACS analysis. siRNA-mediated knockdown of Bcl2L12 polypeptide sensitized the glioma cell lines to STS-induced apoptosis. […] The maximum percent DNA fragmentation was about 30 percent, 45 percent, and 55 percent in LNZ308 cells transfected with control siRNA, siRNA #4, or siRNA #5, respectively, and treated with 2.0 μM STS (FIG. 10B). […] The maximum percent DNA fragmentation was about 40 percent, 60 percent, and 75 percent in LN443 cells transfected with control siRNA, siRNA #4, or siRNA #5, respectively, and treated with 2.0 μM STS (FIG. 10C).

LNZ308 cells = assay: STS-induced DNA fragmentation (sub-G1, FACS) in LNZ308 cells; details: LNZ308, 2.0 μM STS; control siRNA about 30 percent
Method: as §1
LNZ308 cells co-transfected with pcDNA3-GFP and either pSHAG-A or pSHAG-B were treated with 0.1 or 0.5 μM of STS for 24 hours, and DNA fragmentation was assessed.

[1] = test system: caspases 2, 3/7, 6, 8, and 9; assay: Caspase activity profile with fluorogenic peptide substrates in LNZ308 cells; details: LNZ308, STS 24 hours
Method: LNZ308 cells were transfected with control or siRNA oligonucleotide #5, and treated with STS for 24 hours. Subsequently, caspase activity was profiled using caspase-specific fluorogenic peptide substrates assessing the activity status of caspases 2, 3/7, 6, 8, and 9.

pro-caspase-7 = assay: Anti-L12-2 immunoprecipitation from U87MG cells, Western blot for caspase-7; details: anti-L12-2 immunoprecipitates
Method: To define further the molecular actions of Bcl2L12 polypeptides, the physical interactions with key post-mitochondrial apoptosis signaling molecules were assessed. Anti-L12-2 immunoprecipitates from lysates of LNZ308, U87MG, and 293T cells were subjected to western blot analysis for procaspases 7 and 3 and cytochrome c. Briefly, cells were lysed in IP buffer. Cleared supernatants were incubated with prebleed serum (8 μl) coupled to Protein A-sepharose 4B beads (Sigma) for 1 hour and subsequently with anti-L12-2 antiserum (8 μl) for 1 to 2 hours. For western blot analyses, polypeptides were separated by 4-12% SDS-PAGE, transferred to Hybond PVDF membranes (Amersham), blocked with 5% milk in phosphate-buffered saline with 0.05% Tween 20 (PBS/Tween) for 1 hour, washed with PBS/Tween and incubated with anti-cytochrome c antibodies (0.5 μg/ml; BD Pharmingen), anti-caspase-7 antibodies (0.5 μg/ml, BD Pharmingen), or anti-caspase-3 anitbodies (0.25 μg/ml, BD Transduction Laboratories) in PBS/Tween 20 with 5% milk. The blots were washed with PBS/Tween and developed with goat anti-rabbit IgG (1:10,000) or with goat anti-mouse antibodies (1:10,000) (Pierce) in 5% milk PBS/Tween. […] 1/40 of the lysate used for the immunoprecipitation was loaded to quantify the amount of co-immunoprecipitated caspase-7. […]

Row | Substance | Bcl2L12 polypeptide levels (Bcl2L12 polypeptide) | maximum percent DNA fragmentation (LN443 cells) [%] | maximum percent DNA fragmentation (LNZ308 cells) [%] | caspase activity [1] | co-immunoprecipated pro-caspase-7 (pro-caspase-7)
1 | siRNA #5: Bcl2L12-targeting siRNA oligonucleotide 5′-UGGUGGAGCUGUUCUGUAG-3′; SEQ ID NO:7 (chemistry not given here) | significant reduction | ~75 | ~55 | enhanced caspase activity | significant decrease
2 | siRNA #4: Bcl2L12-targeting siRNA oligonucleotide 5′-AAGCUGGUCCGCCUGUCCU-3′; SEQ ID NO:6 (chemistry not given here) | significant reduction | ~60 | ~45 | – | –
